pIC50: −log10 of the molar value. Converted amounts (≈) assume the structure as drawn.
Legend:
[1] = Metabolic stability in mouse liver microsomes assessed as half life; assay type: ADME, Microsome
[2] = Volume of distribution in Sprague-Dawley rat at 1 mg/kg, iv; assay type: ADME, organism-based; conditions: in vivo
[3] = Apparent permeability across apical to basolateral side in dog MDCK cells; assay type: ADME, cell-based, Canis lupus familiaris
[4] = target: T1, Cytochrome P450 2C8 (Homo sapiens, UniProt P10632); assay: Inhibition of CYP2C8 (unknown origin); assay type: ADME
T1 sequence (P10632 whole entry): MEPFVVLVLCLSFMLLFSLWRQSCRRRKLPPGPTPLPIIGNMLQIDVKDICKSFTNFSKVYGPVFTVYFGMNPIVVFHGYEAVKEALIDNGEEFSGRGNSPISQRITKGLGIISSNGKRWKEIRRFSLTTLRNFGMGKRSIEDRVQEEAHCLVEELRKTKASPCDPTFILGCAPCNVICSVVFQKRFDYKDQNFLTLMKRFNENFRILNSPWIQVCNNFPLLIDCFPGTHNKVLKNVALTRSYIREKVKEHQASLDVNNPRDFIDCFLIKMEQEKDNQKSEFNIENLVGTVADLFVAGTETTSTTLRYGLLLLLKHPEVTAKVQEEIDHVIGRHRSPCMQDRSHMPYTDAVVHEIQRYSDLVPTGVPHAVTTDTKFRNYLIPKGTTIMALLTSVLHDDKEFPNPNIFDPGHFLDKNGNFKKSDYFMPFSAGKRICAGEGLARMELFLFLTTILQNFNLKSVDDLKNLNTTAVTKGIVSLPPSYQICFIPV

[5] = Volume of distribution in Beagle dog at 0.5 mg/kg, iv; assay type: ADME, organism-based, Canis lupus familiaris; conditions: in vivo
[6] = Plasma protein binding in dog assessed as bound fraction; assay type: ADME, cell-free, Canis lupus familiaris; conditions: read-out: PPB (converted)
[7] = test system: Mycobacterium tuberculosis; assay: In vivo antimycobacterial activity against Mycobacterium tuberculosis Erdman infected mouse acute tuberculosis infection model assessed as reduction lung bacterial loads by measuring CFU at 10 to 100 mg/kg for 3 weeks at 5 days/week; assay type: functional, organism-based; conditions: dose 10-100 mg/kg, DDE = dose-dependent effect
[8] = Half life in Beagle dog at 0.5 mg/kg, iv; assay type: ADME, organism-based, Canis lupus familiaris; conditions: in vivo
[9] = test system: Mycobacterium tuberculosis; assay: Antimycobacterial activity against Mycobacterium tuberculosis Erdman assessed as bacterial growth inhibition; assay type: functional
[10] = AUC (0-last) in Beagle dog at 2 mg/kg, po; assay type: ADME, organism-based, Canis lupus familiaris; conditions: in vivo
[11] = target: Voltage-dependent L-type calcium channel subunit alpha-1C (Homo sapiens, UniProt Q13936); assay: Inhibition of human Cav1.2
Sequence of Voltage-dependent L-type calcium channel subunit alpha-1C (Q13936 whole entry): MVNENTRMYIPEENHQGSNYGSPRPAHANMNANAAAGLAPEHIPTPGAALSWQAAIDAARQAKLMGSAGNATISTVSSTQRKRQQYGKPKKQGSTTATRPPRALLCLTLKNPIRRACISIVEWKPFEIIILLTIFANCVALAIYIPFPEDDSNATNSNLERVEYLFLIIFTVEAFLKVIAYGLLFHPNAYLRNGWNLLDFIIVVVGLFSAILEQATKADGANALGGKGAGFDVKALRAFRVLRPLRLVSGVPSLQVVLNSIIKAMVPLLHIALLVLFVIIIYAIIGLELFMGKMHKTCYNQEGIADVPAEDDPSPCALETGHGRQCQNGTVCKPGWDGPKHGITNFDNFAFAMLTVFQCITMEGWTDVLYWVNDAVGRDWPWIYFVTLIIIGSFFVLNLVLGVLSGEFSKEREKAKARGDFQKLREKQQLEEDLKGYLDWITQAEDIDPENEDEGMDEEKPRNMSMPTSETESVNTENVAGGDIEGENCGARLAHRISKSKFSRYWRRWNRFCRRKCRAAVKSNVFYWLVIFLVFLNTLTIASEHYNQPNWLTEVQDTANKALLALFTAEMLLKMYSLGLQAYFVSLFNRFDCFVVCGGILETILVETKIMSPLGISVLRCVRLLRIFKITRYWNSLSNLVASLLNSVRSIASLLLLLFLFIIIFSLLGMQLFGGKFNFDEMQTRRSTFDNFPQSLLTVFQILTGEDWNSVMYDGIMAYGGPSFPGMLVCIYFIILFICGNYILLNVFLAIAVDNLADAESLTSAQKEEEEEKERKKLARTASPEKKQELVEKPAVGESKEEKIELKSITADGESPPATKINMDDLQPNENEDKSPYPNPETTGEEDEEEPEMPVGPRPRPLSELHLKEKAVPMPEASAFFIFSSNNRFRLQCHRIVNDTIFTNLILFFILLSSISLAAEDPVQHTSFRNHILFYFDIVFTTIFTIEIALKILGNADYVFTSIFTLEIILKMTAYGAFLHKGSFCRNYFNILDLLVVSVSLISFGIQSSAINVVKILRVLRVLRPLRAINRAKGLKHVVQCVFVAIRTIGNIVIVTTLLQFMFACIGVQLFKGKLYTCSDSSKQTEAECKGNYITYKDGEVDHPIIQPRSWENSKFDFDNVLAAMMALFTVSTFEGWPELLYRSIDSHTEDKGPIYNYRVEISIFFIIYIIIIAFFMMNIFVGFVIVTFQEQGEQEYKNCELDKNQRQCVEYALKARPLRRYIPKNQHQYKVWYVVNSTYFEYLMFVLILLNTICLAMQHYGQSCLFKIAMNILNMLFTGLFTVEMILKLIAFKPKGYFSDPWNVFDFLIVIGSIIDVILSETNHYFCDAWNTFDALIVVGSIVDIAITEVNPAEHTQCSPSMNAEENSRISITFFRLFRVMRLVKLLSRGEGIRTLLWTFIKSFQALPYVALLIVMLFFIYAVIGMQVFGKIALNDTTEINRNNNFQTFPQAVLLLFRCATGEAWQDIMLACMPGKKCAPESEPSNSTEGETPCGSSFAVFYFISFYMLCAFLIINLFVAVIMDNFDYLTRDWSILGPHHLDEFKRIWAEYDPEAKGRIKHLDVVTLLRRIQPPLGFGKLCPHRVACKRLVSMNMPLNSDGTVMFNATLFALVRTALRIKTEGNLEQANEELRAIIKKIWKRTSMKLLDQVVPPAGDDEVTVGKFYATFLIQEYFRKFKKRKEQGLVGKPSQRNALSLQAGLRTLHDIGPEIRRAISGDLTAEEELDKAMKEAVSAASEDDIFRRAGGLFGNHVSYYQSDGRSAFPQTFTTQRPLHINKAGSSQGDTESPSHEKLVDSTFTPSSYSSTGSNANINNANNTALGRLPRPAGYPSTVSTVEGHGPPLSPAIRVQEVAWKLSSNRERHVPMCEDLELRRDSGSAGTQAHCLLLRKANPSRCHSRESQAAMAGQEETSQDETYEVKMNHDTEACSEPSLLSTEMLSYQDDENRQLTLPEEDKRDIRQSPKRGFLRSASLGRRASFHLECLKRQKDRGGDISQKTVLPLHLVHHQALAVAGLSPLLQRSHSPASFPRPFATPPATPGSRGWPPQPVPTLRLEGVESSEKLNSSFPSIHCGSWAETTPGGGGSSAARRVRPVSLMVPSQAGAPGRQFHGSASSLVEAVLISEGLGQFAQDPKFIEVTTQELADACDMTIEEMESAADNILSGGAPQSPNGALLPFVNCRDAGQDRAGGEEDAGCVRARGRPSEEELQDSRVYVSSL

[12] = AUC (0-last) in Sprague-Dawley rat at 4 mg/kg, po; assay type: ADME, organism-based; conditions: in vivo
[13] = Drug distribution in Sprague-Dawley rat intestinal wall at 10 mg/kg, po administered as C14-lableled compound and assessed as radioactivity; assay type: ADME, organism-based, Intestine; conditions: in vivo
[14] = Metabolic stability in human liver microsomes assessed as half life; assay type: ADME, Microsome
[15] = target: Cytochrome P450 2C9 (Homo sapiens, UniProt P11712); assay: Inhibition of CYP2C9 (unknown origin); assay type: ADME
Sequence of Cytochrome P450 2C9 (P11712 whole entry): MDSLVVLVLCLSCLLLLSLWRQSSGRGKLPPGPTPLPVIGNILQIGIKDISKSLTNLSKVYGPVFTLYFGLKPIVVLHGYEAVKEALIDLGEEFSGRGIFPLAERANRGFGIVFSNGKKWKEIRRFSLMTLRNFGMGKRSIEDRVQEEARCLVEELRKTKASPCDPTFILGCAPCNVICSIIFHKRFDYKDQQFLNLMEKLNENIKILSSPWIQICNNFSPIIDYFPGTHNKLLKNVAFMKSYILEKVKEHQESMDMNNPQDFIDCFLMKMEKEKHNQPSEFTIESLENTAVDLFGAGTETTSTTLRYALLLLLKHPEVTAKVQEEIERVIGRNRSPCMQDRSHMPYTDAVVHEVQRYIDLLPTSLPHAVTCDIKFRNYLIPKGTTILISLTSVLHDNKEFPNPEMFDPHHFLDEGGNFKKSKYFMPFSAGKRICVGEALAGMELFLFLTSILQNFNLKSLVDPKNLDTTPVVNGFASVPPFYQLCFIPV

[16] = Drug distribution in Sprague-Dawley rat lung at 10 mg/kg, po administered as C14-lableled compound and assessed as radioactivity; assay type: ADME, organism-based; conditions: in vivo
[17] = Cytotoxicity against African green monkey vero cells assessed as reduction in cell viability; assay type: toxicity, cell-based; conditions: chlorocebus sabaeus
[18] = Mutagenicity in Salmonella typhimurium by Ames test; assay type: toxicity; conditions: salmonella enterica subsp. enterica serovar typhimurium; route au
[19] = Metabolic stability in rat liver microsomes assessed as half life; assay type: ADME, Microsome
[20] = Cmax in Sprague-Dawley rat at 4 mg/kg, po; assay type: ADME, organism-based; design: dose 4 mg/kg, route po; conditions: in vivo
[21] = test system: Mycobacterium tuberculosis; assay: Antimycobacterial activity against Mycobacterium tuberculosis H37Rv assessed as bacterial growth inhibition incubated for 10 days under hypoxic condition followed by 28 hrs incubation under normoxic condition by Low-Oxygen-Recovery Assay; assay type: functional; conditions: 264 h, time 11 day
[22] = target: Cytochrome P450 3A4 (Homo sapiens, UniProt P08684); assay: Inhibition of CYP3A4 (unknown origin); assay type: ADME
Sequence of Cytochrome P450 3A4 (P08684 whole entry): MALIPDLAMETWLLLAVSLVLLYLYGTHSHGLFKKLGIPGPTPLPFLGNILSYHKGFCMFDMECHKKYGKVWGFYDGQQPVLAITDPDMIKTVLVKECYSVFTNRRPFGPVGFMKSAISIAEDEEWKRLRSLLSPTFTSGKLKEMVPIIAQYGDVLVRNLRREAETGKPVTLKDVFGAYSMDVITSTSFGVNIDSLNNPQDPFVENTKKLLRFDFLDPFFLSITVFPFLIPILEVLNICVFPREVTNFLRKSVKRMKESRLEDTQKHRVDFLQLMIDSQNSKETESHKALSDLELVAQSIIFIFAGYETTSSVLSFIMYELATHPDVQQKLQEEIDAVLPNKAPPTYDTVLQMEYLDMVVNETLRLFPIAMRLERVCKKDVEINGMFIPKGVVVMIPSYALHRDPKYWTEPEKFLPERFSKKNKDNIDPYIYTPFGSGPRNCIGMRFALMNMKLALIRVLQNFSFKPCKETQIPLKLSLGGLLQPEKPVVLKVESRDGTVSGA

[23] = Clearance in Sprague-Dawley rat at 1 mg/kg, iv; assay type: ADME, organism-based; conditions: in vivo
[24] = target: Sodium channel protein type 5 subunit alpha (Homo sapiens, UniProt Q14524); assay: Inhibition of NaV 1.5 (unknown origin)
[25] = test system: Mycobacterium tuberculosis; assay: In vivo antimycobacterial activity against Mycobacterium tuberculosis Erdman infected mouse acute tuberculosis infection model assessed as reduction in log10 CFU at 10 mg/kg for 3 weeks at 5 days/week relative to control; assay type: functional
[26] = test system: Mycobacterium tuberculosis; assay: In vivo antimycobacterial activity against Mycobacterium tuberculosis Erdman infected mouse chronic tuberculosis infection model assessed as reduction log10 CFU at 10 to 100 mg/kg for 4 weeks at 5 days/week administered after 31 days post infection relative to control; assay type: functional; conditions: dose 10-100 mg/kg
[27] = target: Cytochrome P450 2C19 (Homo sapiens, UniProt P33261); assay: Inhibition of CYP2C19 (unknown origin); assay type: ADME
Sequence of Cytochrome P450 2C19 (P33261 whole entry): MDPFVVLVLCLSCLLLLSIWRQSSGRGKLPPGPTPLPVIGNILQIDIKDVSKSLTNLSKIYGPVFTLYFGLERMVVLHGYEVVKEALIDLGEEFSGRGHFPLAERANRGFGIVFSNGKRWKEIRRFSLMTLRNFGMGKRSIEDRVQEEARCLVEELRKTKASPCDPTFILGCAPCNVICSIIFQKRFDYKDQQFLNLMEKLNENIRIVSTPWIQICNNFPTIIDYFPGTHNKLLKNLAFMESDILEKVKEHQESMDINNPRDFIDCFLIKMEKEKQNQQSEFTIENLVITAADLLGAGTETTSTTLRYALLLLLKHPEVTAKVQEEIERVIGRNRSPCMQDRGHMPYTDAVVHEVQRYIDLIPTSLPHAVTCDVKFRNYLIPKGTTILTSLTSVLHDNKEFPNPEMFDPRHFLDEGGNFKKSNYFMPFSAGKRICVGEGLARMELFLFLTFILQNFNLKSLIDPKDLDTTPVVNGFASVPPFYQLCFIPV

[28] = Drug distribution in Sprague-Dawley rat liver at 10 mg/kg, po administered as C14-lableled compound and assessed as radioactivity; assay type: ADME, organism-based; conditions: in vivo
[29] = Half life in CD-1 mouse at 0.6 mg/kg, iv; assay type: ADME, organism-based; conditions: in vivo
[30] = Aqueous solubility of compound at pH 2.0; assay type: physicochemical; conditions: buffer
[31] = Cmax in Beagle dog at 2 mg/kg, po; assay type: ADME, organism-based, Canis lupus familiaris; design: dose 2 mg/kg, route po; conditions: in vivo
[32] = Oral bioavailability in Sprague-Dawley rat at 4 mg/kg; assay type: ADME, organism-based; conditions: in vivo
[33] = Oral bioavailability in CD-1 mouse at 5 mg/kg; assay type: ADME, organism-based; conditions: mouse, in vivo, po, 5 mg/kg

C[C@]1(CN2Cc3nc(-c4ccc(F)cc4)sc3C2)CN=C(N)O1
half-life [1]: 1.05 h | Vd [2]: 5.56 L/kg | Papp A→B [3]: 20.9 ×10⁻⁶ cm/s | pIC50 [4]: < 4.00 | Vd [5]: 4.52 L/kg | fraction unbound [6]: 0.036 | Activity [7]: Dde | half-life [8]: 6.03 h | MIC [9]: 0.109 µg/mL (≈ 0.328 µM) | AUClast [10]: 1910 ng·h | pIC50 [11]: < 4.88 | AUClast [12]: 4520 ng·h | Drug uptake [13]: Active | half-life [14]: 1.78 h | pIC50 [15]: < 4.00 | Drug uptake [16]: Active | CC50 [17]: > 32 µg/mL | Activity [18]: Non-Toxic | half-life [19]: 1.13 h | Cmax [20]: 526 nM | MIC [21]: 5.63 µg/mL (≈ 16.9 µM) | pIC50 [22]: < 4.00 | clearance [23]: 24.6 mL/min/kg | pIC50 [24]: < 4.88 | Activity [25]: 4 log10CFU | Activity [26]: 1 log10CFU | pIC50 [27]: < 4.00 | Drug uptake [28]: Active | half-life [29]: 3.25 h | solubility [30]: 32.2 µM (≈ 10.7 µg/mL) | Cmax [31]: 141 nM | bioavailability [32]: 66.9% | F [33]: 31.2%
